# Assay: recombinant barcode read abundance after kanamycin selection (control-corrected) (log10(CPM+1)); higher = more efficient recombination; sequences stand for … in AGTGCAGAGAAAATCGGCCAGTTTTCTCTGCCTGCAGTCCGCATGCCGT…ATTTATGCAGCGGACTGCCTTTCTCCCAAAGTGATAAACCGGACAGTATCATGGACCGGTTTTCCCGGTAATCCGTATTTGCAAGGTTGGTTTCACT; site = the 11-nt target
# Method: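 Same pooled E. coli target screen (IS621 bridge recombinase, kanamycin selection, control-corrected CPM, mean of 2 biological replicates). Here the two core-binding nucleotides of the LTG and RTG of the bridge RNA target-binding loop are mutated. Target and donor CT cores are held constant, and the other 9 guide positions match the target. The target is read from the library oligo sequence. Molecule = full bridge RNA written as DNA: nt 1-80 from the library oligo, rest WT scaffold.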
row,Sequence,recombinant barcode read abundance (log10)
1,"AAACACAAATGGGTTCTAACCTGTTGCCTTT [AAACACACTAG_LTGcore_AA_RTGcore_AA] (site AAACACACTAG) (LTG core: AA, RTG core: AA)",0.0994
2,"AAACACAAGTGGGTTCTAACCTGTTGCCTAG [AAACACACTAG_LTGcore_AG_RTGcore_CT] (site AAACACACTAG) (LTG core: AG, RTG core: CT)",0.0385
3,"AAACACACCTGGGTTCTAACCTGTTGCCTGG [AAACACACTAG_LTGcore_CC_RTGcore_CC] (site AAACACACTAG) (LTG core: CC, RTG core: CC)",1.46
4,"AAACACACGTGGGTTCTAACCTGTTGCCTAG [AAACACACTAG_LTGcore_CG_RTGcore_CT] (site AAACACACTAG) (LTG core: CG, RTG core: CT)",0.622
5,"AAACACACTTGGGTTCTAACCTGTTGCCTGG [AAACACACTAG_LTGcore_CT_RTGcore_CC] (site AAACACACTAG) (LTG core: CT, RTG core: CC)",0.927
6,"AAACACACTTGGGTTCTAACCTGTTGCCTGT [AAACACACTAG_LTGcore_CT_RTGcore_AC] (site AAACACACTAG) (LTG core: CT, RTG core: AC)",0.639
7,"AAACACACTTGGGTTCTAACCTGTTGCCTTT [AAACACACTAG_LTGcore_CT_RTGcore_AA] (site AAACACACTAG) (LTG core: CT, RTG core: AA)",0.938
8,"AAACACAGATGGGTTCTAACCTGTTGCCTAG [AAACACACTAG_LTGcore_GA_RTGcore_CT] (site AAACACACTAG) (LTG core: GA, RTG core: CT)",0.0116
9,"AAACACATGTGGGTTCTAACCTGTTGCCTCA [AAACACACTAG_LTGcore_TG_RTGcore_TG] (site AAACACACTAG) (LTG core: TG, RTG core: TG)",0.0962
10,"AAACACATTTGGGTTCTAACCTGTTGCCTAG [AAACACACTAG_LTGcore_TT_RTGcore_CT] (site AAACACACTAG) (LTG core: TT, RTG core: CT)",0.0289
11,"AAACAGTAGTGGGTTCTAACCTGTTGCCTCT [AAACAGTCTAG_LTGcore_AG_RTGcore_AG] (site AAACAGTCTAG) (LTG core: AG, RTG core: AG)",0.13
12,"AAACAGTATTGGGTTCTAACCTGTTGCCTAT [AAACAGTCTAG_LTGcore_AT_RTGcore_AT] (site AAACAGTCTAG) (LTG core: AT, RTG core: AT)",0.204

# Assay: recombinant barcode read abundance after kanamycin selection (control-corrected) (log10(CPM+1)); higher = more efficient recombination; sequences stand for … in AGTGCAGAGAAAATCGGCCAGTTTTCTCTGCCTGCAGTCCGCATGCCGT…AGATTTATGCAGCGGACTGCCTTTCTCCCAAAGTGATAAACCGGACAGTATCATGGACCGGTTTTCCCGGTAATCCGTATTTGCAAGGTTGGTTTCACT; site = the 11-nt target
# Method in brief: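 IS621 bridge RNA target-binding loops were paired with targets in a pooled library tested in E. coli. After co-electroporation with a donor plasmid, cells were plated in two replicates on chloramphenicol/ampicillin LB agar (control) and on chloramphenicol/ampicillin/kanamycin carrying 0.1 mM IPTG. Barcodes at recombinant junctions were counted as counts per million, averaged and control-corrected to give recombination efficiency. Values are log10(CPM+1).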
row,Sequence,recombinant barcode read abundance (log10)
1,TTGAAATCTTGGGTTCTAACCTGTTGCCT (site TTGATATCTAG),0.0563
2,TTGAACTCTTGGGTTCTAACCTGTTGCCT (site TTGAACTCTAG),1.18
3,TTGAACTCTTGGGTTCTAACCTGTTGCCT (site TTGAGCTCTAG),0.0203
4,TTGAATCCTTGGGTTCTAACCTGTTGCCA (site TTGAATCCTTG),0.71
5,TTGAATCCTTGGGTTCTAACCTGTTGCCA (site TTGAGTCCTTA),0.0534
6,TTGACATCTTGGGTTCTAACCTGTTGCCT (site TTGAAATCTAG),0.179
7,TTGACATCTTGGGTTCTAACCTGTTGCCT (site TTGACATCTAG),0.216
8,TTGACATCTTGGGTTCTAACCTGTTGCCT (site TTGAGATCTAG),0.0391
9,TTGACATCTTGGGTTCTAACCTGTTGCCT (site TTGATATCTAG),0.147
10,TTGACGACTTGGGTTCTAACCTGTTGCCG (site CACCGAGCTTA),0.149
11,TTGACGACTTGGGTTCTAACCTGTTGCCG (site TTGACGACTCG),0.452
12,TTGAGATCTTGGGTTCTAACCTGTTGCCT (site TTGAAATCTAG),0.0577
13,TTGAGATCTTGGGTTCTAACCTGTTGCCT (site TTGACATCTAG),0
14,TTGAGATCTTGGGTTCTAACCTGTTGCCT (site TTGAGATCTAG),0.0355
15,TTGAGATCTTGGGTTCTAACCTGTTGCCT (site TTGATATCTAG),0.264
16,TTGAGCTCTTGGGTTCTAACCTGTTGCCT (site TTGAACTCTAG),0.0507
17,TTGAGCTCTTGGGTTCTAACCTGTTGCCT (site TTGAGCTCTAG),0.952
18,TTGAGGACTTGGGTTCTAACCTGTTGCCA (site TTGAGGACTAC),1.14
19,TTGAGGACTTGGGTTCTAACCTGTTGCCA (site TTGAGGACTTG),0.943

row,Sequence,recombinant barcode read abundance (log10)
1,TTGAGTACTTGGGTTCTAACCTGTTGCCG (site TTGAGTACTCG),0.577
2,TTGAGTACTTGGGTTCTAACCTGTTGCCG (site TTGATTACTTG),0.0556
3,TTGAGTCCTTGGGTTCTAACCTGTTGCTA (site TTGAATCCTTG),0.037
4,TTGAGTCCTTGGGTTCTAACCTGTTGCTA (site TTGAGTCCTTA),0.488
5,TTGCATCCTTGGGTTCTAACCTGTTGCAG (site CGTTGGTCTTC),0.0529
6,TTGCATCCTTGGGTTCTAACCTGTTGCAG (site TTGCATCCTCT),0.802
7,TTGCCAACTTGGGTTCTAACCTGTTGCCT (site TTGCAAACTAG),0.146
8,TTGCCAACTTGGGTTCTAACCTGTTGCCT (site TTGCCAACTAG),0.332
9,TTGCCAACTTGGGTTCTAACCTGTTGCCT (site TTGCGAACTAG),0.0564
10,TTGCCAACTTGGGTTCTAACCTGTTGCCT (site TTGCTAACTAG),0.00831
11,TTGCCGACTTGGGTTCTAACCTGTTGCCT (site TTGCCGACTAG),0.716
12,TTGCCGACTTGGGTTCTAACCTGTTGCCT (site TTGCCTACTAG),0
13,TTGCCTACTTGGGTTCTAACCTGTTGCCT (site TTGCCGACTAG),0.0577
14,TTGCCTACTTGGGTTCTAACCTGTTGCCT (site TTGCCTACTAG),0.339
15,TTGCGAGCTTGGGTTCTAACCTGTTGCAT (site TTGCGAGCTAT),1.82
16,TTGCGAGCTTGGGTTCTAACCTGTTGCAT (site TTGCGTGCTAA),0.0906
17,TTGGATCCTTGGGTTCTAACCTGTTGCTT (site TTGGATCCTAA),1.87
18,TTGGATCCTTGGGTTCTAACCTGTTGCTT (site TTGGATCCTAG),1.85
19,TTGGGCACTTGGGTTCTAACCTGTTGCCT (site TTGGACACTAG),0.196

row,Sequence,recombinant barcode read abundance (log10)
1,TTGGGCACTTGGGTTCTAACCTGTTGCCT (site TTGGCCACTAG),0.176
2,TTGGGCACTTGGGTTCTAACCTGTTGCCT (site TTGGGCACTAG),0.0687
3,TTGGGCACTTGGGTTCTAACCTGTTGCCT (site TTGGTCACTAG),0.103
4,TTGGGTGCTTGGGTTCTAACCTGTTGCAT (site TAGGCTGCTAT),0.16
5,TTGGGTGCTTGGGTTCTAACCTGTTGCAT (site TTGGGTGCTAT),1.3
6,TTGGGTTCTTGGGTTCTAACCTGTTGCCT (site TTGGGTGCTCG),0.0625
7,TTGGGTTCTTGGGTTCTAACCTGTTGCCT (site TTGGGTTCTAG),0.767
8,TTGTACACTTGGGTTCTAACCTGTTGCTC (site CAACTAGCTAT),0.043
9,TTGTACACTTGGGTTCTAACCTGTTGCTC (site TTGTACACTGA),1.06
10,TTGTACTCTTGGGTTCTAACCTGTTGCTT (site TTGTACTCTAA),0.453
11,TTGTACTCTTGGGTTCTAACCTGTTGCTT (site TTGTGTTCTAA),0.0725
12,TTGTATTCTTGGGTTCTAACCTGTTGCCT (site TTGAATTCTAA),0.0409
13,TTGTATTCTTGGGTTCTAACCTGTTGCCT (site TTGTATTCTAG),0.679
14,TTGTCGACTTGGGTTCTAACCTGTTGCCA (site TTGACGACTTG),0.105
15,TTGTCGACTTGGGTTCTAACCTGTTGCCA (site TTGCCGACTTG),0.0807
16,TTGTCGACTTGGGTTCTAACCTGTTGCCA (site TTGGCGACTTG),0.00572
17,TTGTCGACTTGGGTTCTAACCTGTTGCCA (site TTGTCGACTTG),0.087
18,TTGTGAGCTTGGGTTCTAACCTGTTGCCA (site ACAGTTACTAT),0.0715
19,TTGTGAGCTTGGGTTCTAACCTGTTGCCA (site TTGTGAGCTTG),1.1

# — the supplement of paper PMC11208160
